# Reference: patent US10093656B2, “Fused-ring or tricyclic aryl pyrimidine compound used as kinase inhibitor” (NANJING SANHOME PHARMACEUTICAL CO., LTD, priority 2015, dated 2018)
# Columns and labels:
# Parameters in all cases: species or system BALB/c nude mice
# [1] = system: NCI-H1975 lung cancer patient-derived xenograft (CDX); experiment: Pharmacodynamics study in vivo, NCI-H1975 xenograft (CDX) model; conditions: AZD9291 5 mg/kg
# Method: (§1) For example, after 21 days of administration, the tumor volume of the representative compounds 30, 33, 34, 40, 42 and 43 decreased from the beginning of about 149 mm^3 to 3-39 mm^3.
# (§2) The pharmacological experiments in vivo were performed on BALB/c nude mice that subcutaneously implanted NCI-H1975 lung cancer […] xenograft (CDX).
# (§3) BALB/c nude mice, female, 6-8 weeks, weighted about 18-22 grams, the mice were kept in a special pathogen-free environment, and in a single ventilation cage (5 mice per cage). The bedding and water of all the cages were disinfected before use. All animals were free to obtain standard certified commercial laboratory diets. A total of 100 mice were purchased from Beijing Vital for research. The tumor tissue (20-30 mm^3) was implanted subcutaneously in the […] of each mouse for tumor growth. The experiment was started when the average tumor volume reached about 150-200 mm^3. The test compound was orally administered daily (compound 30 was administered at 10 mg/kg, compound 33, 34, 40, 42 and 43 were administered at 20 mg/kg and compound AZD9291 was administered continuously for 21 days at 5 mg/kg, the data were shown in Table 3). The tumor volume was measured twice a week with a two-dimensional caliper and the volume was measured in cubic millimeters and calculated by the following formula: V=V=0.5 a×b2, where a and b were the major and minor diameters of the tumor, respectively.
# [2] = system: NCI-H1975 lung cancer xenograft (CDX); experiment: as above; conditions: day 0, oral daily: compound 30 10 mg/kg, 33, 34, 40, 42, 43 20 mg/kg, AZD9291 5 mg/kg
# Method: as §1, §2, §3
# [3] = system: human skin squamous cell A431 xenograft (CDX); experiment: Selectivity study in vivo, A431 xenograft (CDX) model; conditions: Table 5 experiment, AZD9291 5 mg/kg
# Method: In this model, the less inhibitory effect on the tumor, the better the selectivity in vivo.
# The selective experiments in vivo were performed on BALB/c nude mice that subcutaneously implanted human skin squamous cell A431 xenograft (CDX).
# BALB/c nude mice, female, 6-8 weeks, weighted about 18-20 grams, the mice were kept in a special pathogen-free environment and in a single ventilation cage (5 mice per cage). The bedding and water of all the cages were disinfected before use. All animals were free to obtain standard certified commercial laboratory diets. All mice were purchased from mice of Shanghai BK Laboratory Animal Co., LTD for research. The tumor tissue (20-30 mm^3) was implanted subcutaneously in the […] of each mouse for tumor growth. The experiment was started when the average tumor volume reached about 150-200 mm^3. The test compound was orally administered (compounds 17, 30, 37 and 38 were administered once daily at 20 mg/kg, the compound AZD9291 was administered once daily at 5 mg/kg, the compound CO-1686 was administered twice daily at 50 mg/kg, the compound Erlotinib was administered once daily at 75 mg/kg and the compound Afatinib was administered once daily at 7.5 mg/kg, 21 days of continuous administration. The data were shown in Table 4; compounds 33, 34, 40, 42 and 43 were administered once daily at 20 mg/kg and compound AZD9291 was administered once daily at5 mg/kg, 21 days of continuous administration. The tumor volume was measured twice a week with a two-dimensional caliper and the volume was measured in cubic millimeters and calculated by the following formula: V=V=0.5 a×b2, where a and b were the major and minor diameters of the tumor, respectively.
smiles,measurement,setting,value
"C=CC(=O)Nc1cc(Nc2nccc(-c3cn(C)c4ccccc34)n2)c(OC)cc1N(C)CCN(C)C [AZD9291, reference compound]",Tumor Volume (mm^3) 4 days,"[1]; day 4, oral daily: compound 30 10 mg/kg, 33, 34, 40, 42, 43 20 mg/kg",86 mm^3
same,Tumor Volume (mm^3) 7 days,"[1]; day 7, oral daily: compound 30 10 mg/kg, 33, 34, 40, 42, 43 20 mg/kg",64 mm^3
same,Tumor Volume (mm^3) 11 days,"[1]; day 11, oral daily: compound 30 10 mg/kg, 33, 34, 40, 42, 43 20 mg/kg",52 mm^3
same,Tumor Volume (mm^3) 14 days,"[1]; day 14, oral daily: compound 30 10 mg/kg, 33, 34, 40, 42, 43 20 mg/kg",66 mm^3
same,Tumor Volume (mm^3) 18 days,"[1]; day 18, oral daily: compound 30 10 mg/kg, 33, 34, 40, 42, 43 20 mg/kg",25 mm^3
same,Tumor Volume (mm^3) 21 days,"[1]; day 21, oral daily: compound 30 10 mg/kg, 33, 34, 40, 42, 43 20 mg/kg",15 mm^3
same,Tumor Volume (mm^3) 0 day,[2],149 mm^3
same,Tumor Volume (mm^3) 4 days,"[3]; day 4, oral once daily: 33, 34, 40, 42, 43 20 mg/kg",153 mm^3
same,Tumor Volume (mm^3) 11 days,"[3]; day 11, oral once daily: 33, 34, 40, 42, 43 20 mg/kg",219 mm^3
same,Tumor Volume (mm^3) 18 days,"[3]; day 18, oral once daily: 33, 34, 40, 42, 43 20 mg/kg",330 mm^3
